Experimental data reported in ChEMBL document CHEMBL4138123, “Design, synthesis and biological evaluation of novel pyrazolochalcones as potential modulators of PI3K/Akt/mTOR pathway and inducers of apoptosis in breast cancer cells” (Eur J Med Chem, 2017).

Key:
Type in all cases: functional
[1] = test system: SK-OV-3; test: Cytotoxicity against human SKOV3 cells assessed as cell growth at 0.01 uM after 48 hrs by sulforhodamine B assay relative to control; details: SK-OV-3, 48 h, read-out: Activity
[2] = test system: BT-549; test: Cytotoxicity against human BT549 cells assessed as growth inhibition after 48 hrs by sulforhodamine B assay; details: BT-549, 48 h
[3] = test system: SNB-19; test: Cytotoxicity against human SNB19 cells assessed as cell growth at 10 uM after 48 hrs by sulforhodamine B assay relative to control; details: SNB-19, 48 h, read-out: Activity
[4] = test system: NCI-H522; test: Cytotoxicity against human NCI-H522 cells assessed as cell growth at 1 uM after 48 hrs by sulforhodamine B assay relative to control; details: NCI-H522, 48 h, read-out: Activity
[5] = test system: OVCAR-4; test: Cytotoxicity against human OVCAR4 cells assessed as growth inhibition after 48 hrs by sulforhodamine B assay; details: OVCAR-4, 48 h
[6] = test system: RXF 393; test: Cytotoxicity against human RXF393 cells assessed as cell growth at 100 uM after 48 hrs by sulforhodamine B assay relative to control; details: RXF 393, 48 h, read-out: Activity
[7] = test system: SNB-19; test: Cytotoxicity against human SNB19 cells assessed as cell growth at 0.1 uM after 48 hrs by sulforhodamine B assay relative to control; details: SNB-19, 48 h, read-out: Activity
[8] = test system: HCT-116; test: Cytotoxicity against human HCT116 cells assessed as cell growth at 10 uM after 48 hrs by sulforhodamine B assay relative to control; details: HCT-116, 48 h, read-out: Activity
[9] = test system: CCRF-CEM; test: Cytotoxicity against human CCRF-CEM cells assessed as growth inhibition after 48 hrs by sulforhodamine B assay
[10] = test system: SK-MEL-5; test: Cytotoxicity against human SK-MEL-5 cells assessed as cell growth at 0.01 uM after 48 hrs by sulforhodamine B assay relative to control; details: SK-MEL-5, 48 h, read-out: Activity
[11] = test system: NCI-H226; test: Cytotoxicity against human NCI-H226 cells assessed as growth inhibition after 48 hrs by sulforhodamine B assay; details: NCI-H226, 48 h
[12] = test system: CCRF-CEM; test: Cytotoxicity against human CCRF-CEM cells assessed as cell growth at 0.01 uM after 48 hrs by sulforhodamine B assay relative to control; details: read-out: Activity
[13] = test system: SK-MEL-2; test: Cytotoxicity against human SK-MEL-2 cells assessed as growth inhibition after 48 hrs by sulforhodamine B assay; details: SK-MEL-2, 48 h
[14] = test system: OVCAR-3; test: Cytotoxicity against human OVCAR3 cells assessed as cell growth at 100 uM after 48 hrs by sulforhodamine B assay relative to control; details: OVCAR-3, 48 h, read-out: Activity
[15] = test system: RXF 393; test: Cytotoxicity against human RXF393 cells assessed as cell growth at 0.1 uM after 48 hrs by sulforhodamine B assay relative to control; details: RXF 393, 48 h, read-out: Activity
[16] = test system: K562; test: Cytotoxicity against human K562 cells assessed as growth inhibition after 48 hrs by sulforhodamine B assay; details: K562, 48 h
[17] = test system: NCI-H522; test: Cytotoxicity against human NCI-H522 cells assessed as cell growth at 10 uM after 48 hrs by sulforhodamine B assay relative to control; details: NCI-H522, 48 h, read-out: Activity
[18] = test system: UACC-62; test: Cytotoxicity against human UACC62 cells assessed as cell growth at 10 uM after 48 hrs by sulforhodamine B assay relative to control; details: UACC-62, 48 h, read-out: Activity
[19] = test system: NCI-H322M; test: Cytotoxicity against human NCI-H322M cells assessed as cell growth at 10 uM after 48 hrs by sulforhodamine B assay relative to control; details: read-out: Activity
[20] = test system: CCRF-CEM; test: Cytotoxicity against human CCRF-CEM cells assessed as cell growth at 0.1 uM after 48 hrs by sulforhodamine B assay relative to control; details: read-out: Activity
[21] = test system: MDA-MB-231; test: Cytotoxicity against human MDA-MB-231 cells assessed as growth inhibition after 48 hrs by sulforhodamine B assay; details: MDA-MB-231, 48 h
[22] = test system: NCI-H322M; test: Cytotoxicity against human NCI-H322M cells assessed as cell growth at 100 uM after 48 hrs by sulforhodamine B assay relative to control; details: read-out: Activity
[23] = test system: HCT-15; test: Cytotoxicity against human HCT15 cells assessed as cell growth at 0.1 uM after 48 hrs by sulforhodamine B assay relative to control; details: HCT-15, 48 h, read-out: Activity
[24] = test system: ACHN; test: Cytotoxicity against human ACHN cells assessed as cell growth at 10 uM after 48 hrs by sulforhodamine B assay relative to control; details: read-out: Activity
[25] = test system: HOP-62; test: Cytotoxicity against human HOP62 cells assessed as cell growth at 100 uM after 48 hrs by sulforhodamine B assay relative to control; details: HOP-62, 48 h, read-out: Activity
[26] = test system: UACC-257; test: Cytotoxicity against human UACC257 cells assessed as cell growth at 0.1 uM after 48 hrs by sulforhodamine B assay relative to control; details: UACC-257, 48 h, read-out: Activity
[27] = test system: HCT-116; test: Cytotoxicity against human HCT116 cells assessed as cell growth at 0.1 uM after 48 hrs by sulforhodamine B assay relative to control; details: HCT-116, 48 h, read-out: Activity
[28] = test system: IGROV-1; test: Cytotoxicity against human IGROV1 cells assessed as cell growth at 0.01 uM after 48 hrs by sulforhodamine B assay relative to control; details: IGROV-1, 48 h, read-out: Activity
[29] = test system: Malme-3M; test: Cytotoxicity against human MALME-3M cells assessed as cell growth at 10 uM after 48 hrs by sulforhodamine B assay relative to control; details: read-out: Activity
[30] = test system: SF-539; test: Cytotoxicity against human SF539 cells assessed as cell growth at 10 uM after 48 hrs by sulforhodamine B assay relative to control; details: SF-539, 48 h, read-out: Activity
[31] = test system: Malme-3M; test: Cytotoxicity against human MALME-3M cells assessed as cell growth at 0.01 uM after 48 hrs by sulforhodamine B assay relative to control; details: read-out: Activity
[32] = test system: RXF 393; test: Cytotoxicity against human RXF393 cells assessed as growth inhibition after 48 hrs by sulforhodamine B assay; details: RXF 393, 48 h
[33] = test system: UACC-62; test: Cytotoxicity against human UACC62 cells assessed as growth inhibition after 48 hrs by sulforhodamine B assay; details: UACC-62, 48 h
[34] = test system: SF-539; test: Cytotoxicity against human SF539 cells assessed as growth inhibition after 48 hrs by sulforhodamine B assay; details: SF-539, 48 h
[35] = test system: ACHN; test: Cytotoxicity against human ACHN cells assessed as cell growth at 1 uM after 48 hrs by sulforhodamine B assay relative to control; details: read-out: Activity
[36] = test system: TK-10; test: Cytotoxicity against human TK10 cells assessed as cell growth at 0.01 uM after 48 hrs by sulforhodamine B assay relative to control; details: TK-10, 48 h, read-out: Activity

COc1ccc(-c2cc(/C=C/C(=O)c3cc(OC)c(OC)c(OC)c3)[nH]n2)cc1OC
growth at 0.01 µM [1]: 97%
GI50 [2]: 1.36 µM
LC50 (concentration killing 50% of cells) [2]: 6.32 µM
TGI [2]: 2.93 µM
growth at 10 µM [3]: -29%
growth at 1 µM [4]: 71%
GI50 [5]: 1.62 µM
TGI [5]: 7.17 µM
growth at 100 µM [6]: -83%
growth at 0.1 µM [7]: 92%
growth at 10 µM [8]: -81%
GI50 [9]: 0.34 µM
LC50 (concentration killing 50% of cells) [9]: > 100 µM
TGI [9]: 3.13 µM
growth at 0.01 µM [10]: 101%
GI50 [11]: 1.93 µM
LC50 (concentration killing 50% of cells) [11]: > 100 µM
TGI [11]: 7.91 µM
growth at 0.01 µM [12]: 97%
GI50 [13]: 2.69 µM
LC50 (concentration killing 50% of cells) [13]: 29.5 µM
TGI [13]: 7.7 µM
growth at 100 µM [14]: -83%
growth at 0.1 µM [15]: 102%
GI50 [16]: 0.73 µM
LC50 (concentration killing 50% of cells) [16]: > 100 µM
TGI [16]: 9.71 µM
growth at 10 µM [17]: -94%
growth at 10 µM [18]: -61%
growth at 10 µM [19]: -23%
growth at 0.1 µM [20]: 91%
GI50 [21]: 2.02 µM
LC50 [21]: 55.4 µM
TGI [21]: 13.5 µM
growth at 100 µM [22]: -91%
growth at 0.1 µM [23]: 90%
growth at 10 µM [24]: -95%
growth at 100 µM [25]: -84%
growth at 0.1 µM [26]: 97%
growth at 0.1 µM [27]: 88%
growth at 0.01 µM [28]: 103%
growth at 10 µM [29]: -25%
growth at 10 µM [30]: -85%
growth at 0.01 µM [31]: 98%
GI50 [32]: 1.53 µM
LC50 (concentration killing 50% of cells) [32]: 6.51 µM
TGI [32]: 3.16 µM
GI50 [33]: 1.79 µM
LC50 [33]: 8.39 µM
TGI [33]: 3.88 µM
GI50 [34]: 0.3 µM
LC50 (concentration killing 50% of cells) [34]: 4.57 µM
TGI [34]: 1.48 µM
growth at 1 µM [35]: 78%
growth at 0.01 µM [36]: 93%

COc1cc(-c2cc(/C=C/C(=O)c3ccc(Cl)c(Cl)c3)[nH]n2)cc(OC)c1OC
growth at 0.01 µM [1]: 99%
LC50 (concentration killing 50% of cells) [2]: 92.6 µM
TGI [2]: 29.3 µM
growth at 10 µM [3]: 50%
growth at 1 µM [4]: 67%
LC50 [5]: > 100 µM
TGI [5]: 50.9 µM
growth at 100 µM [6]: -71%
growth at 0.1 µM [7]: 92%
growth at 10 µM [8]: 16%
LC50 (concentration killing 50% of cells) [9]: > 100 µM
TGI [9]: 23.5 µM
growth at 0.01 µM [10]: 98%
LC50 (concentration killing 50% of cells) [11]: > 100 µM
TGI [11]: > 100 µM
growth at 0.01 µM [12]: 98%
LC50 (concentration killing 50% of cells) [13]: 83.8 µM
TGI [13]: 34.1 µM
growth at 100 µM [14]: -30%
growth at 0.1 µM [15]: 96%
LC50 (concentration killing 50% of cells) [16]: > 100 µM
TGI [16]: 64.4 µM
growth at 10 µM [17]: -72%
growth at 10 µM [18]: 63%
growth at 10 µM [19]: 59%
growth at 0.1 µM [20]: 98%
LC50 [21]: > 100 µM
TGI [21]: > 100 µM
growth at 100 µM [22]: 5%
growth at 0.1 µM [23]: 94%
growth at 10 µM [24]: 67%
growth at 100 µM [25]: -74%
growth at 0.1 µM [26]: 96%
growth at 0.1 µM [27]: 100%
growth at 0.01 µM [28]: 97%
growth at 10 µM [29]: 72%
growth at 10 µM [30]: 28%
growth at 0.01 µM [31]: 94%
LC50 (concentration killing 50% of cells) [32]: 54.6 µM
TGI [32]: 12.8 µM
LC50 [33]: > 100 µM
TGI [33]: > 100 µM
LC50 (concentration killing 50% of cells) [34]: 57.8 µM
TGI [34]: 18.7 µM
growth at 1 µM [35]: 101%
growth at 0.01 µM [36]: 90%
